Counter-ions that a name gives are not always drawn.
- melting point: 184 to 188 °C
Structure (SMILES): COc1ccc(-c2ccc3cc(OC)ccc3c2Oc2ccc(OCCN3CCCCC3)cc2)cc1 (as salt: hydrochloride) [Example 4, 1-[4-[2-(1-piperdinyl)ethoxy]phenoxy]-2-(4-methoxyphenyl)-6-methoxynaphthalene hydrochloride]

Reference: patent US6355632B1, “Naphthyl compounds, intermediates, compositions, and methods” (Eli Lilly and Company, priority 1995, dated 2002)
